Several values for one entry are separate records, joined by “and”; a condition that tells them apart may be missing. Identical values can stand only once. Values belong to the compound of their own block, whether it stands above or below them.
How the values were obtained:
[1] = Effect on body growth of rats on dexamethasone with or without epicatechin; assay type: in vivo, SD rats; details: for Femur Length / Tibia Length: 37th day; for WEIGHT Avg / LENGTH Avg: group average; for WEIGHT Ind: individual rat
Protocol: SD rats of the body weight 50-60 g and age 3-4 weeks were divided into 4 groups. […] All dosing were by subcutaneous (SC) mode of administration. Dosing of animals was continued for 36 days. Body weight was measured every alternate day, overall length was measured weekly. Animals were photographed periodically to further support data. Feed intake, general health and movement were assessed routinely. On 37th day animals were sacrificed and femur and tibia length were measured using Vernier Calipers. Blood was collected and stored.

[2] = tested on: mouse myoblast cell line, C2C12; assay: Mouse myoblast assay (C2C12, Western blot); assay type: cell-based; details: C2C12, enantiomers 10 nM to 1000 nM, within 24 hr
Protocol: Cells or skeletal muscle tissue samples were homogenized in 50 ul lysis buffer (1% triton X-100, 20 mmol/L Tris, 140 mmol/L NaCl, 2 mmol/L EDTA, and 0.1% SDS) with protease and phosphatase inhibitor cocktails supplemented with 1 mmol/L PMSF, 2 mmol/L Na3VO4 and 1 mmol/L NaP. Homogenates were passed through an insulin syringe five times, sonicated for 30 min at 4DC and centrifuged (12,000×g) for 10 min. The total protein content was measured in the supernatant. A total of 40)Ig of protein was loaded onto a 5% or 10% SDS-PAGE, electrotransferred, incubated for 1 h in blocking solution (5% nonfat dry milk in TBS plus 0.1% Tween 20 [TBS-T]), followed by either a 3-h incubation at room temperature or overnight incubation at 4DC with primary antibodies. Primary antibodies were typically diluted 1:1000 or 1:2000 in TBS-T plus 5% bovine serum albumin. Membranes were washed (3× for 5 min) in TBS-T and incubated 1 h at room temperature in the presence of HRP-conjugated secondary antibodies diluted 1:10,000 in blocking solution. Membranes were again washed 3 times in TBS-T, and the immunoblots were developed using an enhanced chemiluminescence detection kit. The band intensities were digitally quantified. All primary antibodies are commercially available. Epicatechin induces follistatin expression, suppresses myostatin expression and accelerates the differentiation of cultured mouse myoblasts into myotubes. […] The mouse myoblast cell line, C2C12, was grown to semi-confluence in 6-well tissue culture plates and then exposed to epicatechin (100 nM) for three days using literature-standardized differentiation inducing media: DMEM supplemented with 2% horse serum. Proteins were extracted, separated by conventional gel electrophoresis and stained as Western blots by reacting with commercially available antibodies specific for markers of muscle cell growth and differentiation. In experiments examining the comparative effects of (−) and (+) epicatechin enantiomers on muscle cells, the cells were grown to semi-confluence in 6 well plates, placed into literature-standardized differentiation medium containing horse serum, and then stimulated for 24 hours with (−) or (+) epicatechin enantiomers, at concentrations ranging from 10 nM to 1000 nM. The cells were then harvested as above, and Western blots were prepared to determine relative expression of PGCla and follistatin, using commercially available, specific, primary antibodies.

[3] = epicatechin 3 MPK s/c followed by dexamethasone
[4] = epicatechin 10 MPK s/c followed by dexamethasone

Compound: Oc1cc(O)c2c(c1)O[C@H](c1ccc(O)c(O)c1)[C@H](O)C2 [epicatechin]
Femur Length [1, 3]: 29.57 mm
Tibia Length [1, 3]: 34.91 mm
Femur Length [1, 4]: 31.30 mm
Tibia Length [1, 4]: 35.37 mm

Femur Length ([1]; dexamethasone s/c alone): 22.68 mm
Tibia Length ([1]; dexamethasone s/c alone): 28.67 mm
WEIGHT Avg ([1]; Day 1, dexamethasone alone SC): 59.3 g
WEIGHT Ind ([1]; Day 1, dexamethasone alone SC): 55.4 g and 57.7 g and 64.8 g
WEIGHT Avg ([1]; Day 11, dexamethasone alone SC): 89.1 g
WEIGHT Ind ([1]; Day 11, dexamethasone alone SC): 91.1 g and 84.3 g and 91.9 g
LENGTH Avg ([1]; Day 13, dexamethasone alone SC): 15.3 cm
LENGTH Avg ([1]; Day 23, dexamethasone alone SC): 14.2 cm
WEIGHT Avg ([1]; Day 23, dexamethasone alone SC): 85.7 g
WEIGHT Ind ([1]; Day 23, dexamethasone alone SC): 88.0 g and 80.0 g and 89.0 g
LENGTH Avg ([1]; Day 35, dexamethasone alone SC): 14.2 cm
WEIGHT Avg ([1]; Day 35, dexamethasone alone SC): 96.1 g
WEIGHT Ind ([1]; Day 35, dexamethasone alone SC): 103.9 g and 93.1 g and 91.5 g
Compound: C[C@@H]1C[C@H]2[C@@H]3CCC4=CC(=O)C=C[C@]4(C)[C@@]3(F)[C@@H](O)C[C@]2(C)[C@@]1(O)C(=O)CO [DEX, Dexamethasone]

Compound: Oc1cc(O)c2c(c1)O[C@@H](c1ccc(O)c(O)c1)[C@@H](O)C2 [(+) epicatechin, (+)−epicatechin]
expression of PGC1u [2]: stimulated
expression of follistatin [2]: stimulated

Compound: Oc1cc(O)c2c(c1)O[C@H](c1ccc(O)c(O)c1)[C@H](O)C2 [(−) epicatechin, (−)−epicatechin]
expression of PGC1u [2]: stimulated
expression of follistatin [2]: stimulated

— patent publication US11273144B2, “Compounds and compositions for the treatment of muscular disorders and bone disorders” (Epirium Bio Inc., priority 2012, dated 2022)
